Converted amounts (≈) assume the structure as drawn. The source made the active and inactive calls. The rule behind the calls is not given here.
Columns and labels:
[1] = system: Bacillus subtilis; assay: Antibacterial activity against Bacillus subtilis ATCC 23857 incubated for 18 hrs by broth microdilution method; format: functional
[2] = system: Klebsiella pneumoniae; assay: Antibacterial activity against Klebsiella pneumoniae ATCC 700603 incubated for 18 hrs by broth microdilution method; format: functional
[3] = system: Escherichia coli; assay: Antibacterial activity against Escherichia coli ATCC 25922 incubated for 18 hrs by broth microdilution method; format: functional
[4] = system: Staphylococcus aureus; assay: Bactericidal activity against Staphylococcus aureus ATCC 25923 incubated for 18 hrs by broth microdilution method; format: functional
[5] = system: Klebsiella pneumoniae; assay: Bactericidal activity against Klebsiella pneumoniae ATCC 700603 incubated for 18 hrs by broth microdilution method; format: functional
[6] = system: Pseudomonas aeruginosa; assay: Bactericidal activity against Pseudomonas aeruginosa ATCC 27853 incubated for 18 hrs by broth microdilution method; format: functional
[7] = system: Pseudomonas aeruginosa; assay: Antibacterial activity against Pseudomonas aeruginosa incubated for 18 hrs in presence of NaCl by broth microdilution method; format: functional, organism-based
[8] = system: Pseudomonas aeruginosa; assay: Antibacterial activity against Pseudomonas aeruginosa incubated for 18 hrs in presence of KCl by broth microdilution method; format: functional, organism-based
[9] = system: Pseudomonas aeruginosa; assay: Antibacterial activity against Pseudomonas aeruginosa incubated for 18 hrs in presence of FeCl3 by broth microdilution method; format: functional, organism-based
[10] = system: Cell membrane; assay: Induction of inner membrane permeabilization in Escherichia coli ML-35 at 1/2 times MIC measured every 5 mins for 120 mins by ONPG dye based assay; format: cell membranes
[11] = system: Cell membrane; assay: Induction of cytoplasmic membrane depolarization in Staphylococcus aureus at 0.5 times MIC by DiSC3-5 dye based fluorescence method; format: cell membranes
[12] = system: Staphylococcus aureus; assay: Induction of morphological change in Staphylococcus aureus assessed as morphological distortion at 2 times MIC incubated for 30 mins by SEM analysis; format: functional, organism-based
[13] = system: Cell membrane; assay: Induction of cell membrane disruption in Staphylococcus aureus assessed as PI uptake incubated for 2 hrs by PI staining based confocal laser scanning microscopy; format: cell membranes
[14] = system: Klebsiella pneumoniae; assay: Bactericidal activity against Klebsiella pneumoniae at 2 times MIC within 90 mins; format: functional; details: 1.5 h
[15] = system: Staphylococcus aureus; assay: Additive antibacterial activity against methicillin resistant Staphylococcus aureus 75 assessed as fractional inhibitory concentration index incubated for 18 hrs in presence of ciprofloxacin by checkerboard assay; format: functional
[16] = system: Pseudomonas aeruginosa; assay: Antibacterial activity against Pseudomonas aeruginosa assessed as fractional inhibitory concentration index incubated for 18 hrs in presence of cefotaxime by checkerboard assay; format: functional
[17] = system: Staphylococcus aureus; assay: Additive antibacterial activity against methicillin resistant Staphylococcus aureus 113 assessed as fractional inhibitory concentration index incubated for 18 hrs in presence of ciprofloxacin by checkerboard assay; format: functional
[18] = system: Pseudomonas aeruginosa; assay: Additive antibacterial activity against Pseudomonas aeruginosa assessed as fractional inhibitory concentration index incubated for 18 hrs in presence of rifampin by checkerboard assay; format: functional
[19] = system: Staphylococcus aureus; assay: Synergistic antibacterial activity against methicillin resistant Staphylococcus aureus assessed as fractional inhibitory concentration index incubated for 18 hrs in presence of rifampin by checkerboard assay; format: functional
[20] = system: Staphylococcus aureus; assay: Synergistic antibacterial activity against rifampicin resistant Staphylococcus aureus assessed as fractional inhibitory concentration index incubated for 18 hrs in presence of rifampin by checkerboard assay; format: functional
[21] = system: Escherichia coli; assay: Additive antibacterial activity against Escherichia coli assessed as fractional inhibitory concentration index incubated for 18 hrs in presence of kanamycin by checkerboard assay; format: functional
[22] = system: Staphylococcus aureus; assay: Synergistic antibacterial activity against methicillin resistant Staphylococcus aureus 75 assessed as fractional inhibitory concentration index incubated for 18 hrs in presence of kanamycin by checkerboard assay; format: functional
[23] = system: Staphylococcus aureus; assay: Synergistic antibacterial activity against methicillin resistant Staphylococcus aureus 113 assessed as fractional inhibitory concentration index incubated for 18 hrs in presence of kanamycin by checkerboard assay; format: functional
[24] = system: Staphylococcus aureus; assay: Additive antibacterial activity against Staphylococcus aureus 794 assessed as fractional inhibitory concentration index incubated for 18 hrs in presence of kanamycin by checkerboard assay; format: functional
[25] = system: Staphylococcus aureus; assay: Synergistic antibacterial activity against methicillin resistant Staphylococcus aureus assessed as fractional inhibitory concentration index incubated for 18 hrs in presence of streptomycin by checkerboard assay; format: functional
[26] = system: Escherichia coli; assay: Antibacterial activity against kanamycin resistant Escherichia coli assessed as fractional inhibitory concentration index incubated for 18 hrs in presence of streptomycin by checkerboard assay; format: functional
[27] = system: Staphylococcus aureus; assay: Additive antibacterial activity against methicillin resistant Staphylococcus aureus assessed as fractional inhibitory concentration index incubated for 18 hrs in presence of gentamycin by checkerboard assay; format: functional
[28] = system: Staphylococcus aureus; assay: Additive antibacterial activity against methicillin resistant Staphylococcus aureus 75 assessed as fractional inhibitory concentration index incubated for 18 hrs in presence of gentamycin by checkerboard assay; format: functional
[29] = system: Staphylococcus aureus; assay: Additive antibacterial activity against Staphylococcus aureus 794 assessed as fractional inhibitory concentration index incubated for 18 hrs in presence of gentamycin by checkerboard assay; format: functional
[30] = system: Escherichia coli; assay: Synergistic antibacterial activity against kanamycin resistant Escherichia coli assessed as fractional inhibitory concentration index incubated for 18 hrs in presence of gentamycin by checkerboard assay; format: functional
[31] = system: Staphylococcus aureus; assay: Additive antibacterial activity against Staphylococcus aureus assessed as fractional inhibitory concentration index incubated for 18 hrs in presence of bacitracin by checkerboard assay; format: functional
[32] = Acute toxicity in mouse assessed as mortality rate at 300 mg/kg, ip by karber method; format: organism-based; details: in vivo, read-out: Activity
[33] = Acute toxicity in mouse assessed as hepatocyte necrosis at 230.5 mg/kg, ip by H and E staining based assay; format: organism-based; details: hepatocytes
[34] = Acute toxicity in mouse assessed as renal cell necrosis at 230.5 mg/kg, ip by H and E staining based assay; format: organism-based; details: in vivo
[35] = system: Escherichia coli; assay: Antibacterial activity against Escherichia coli infected in BALB/c mouse systemic infection model assessed as reduction in lung bacterial load at 5 to 10 mg/kg, ip measured after 24 hrs; format: functional, organism-based; details: dose 5-10 mg/kg
[36] = system: Staphylococcus aureus; assay: Antibacterial activity against Staphylococcus aureus infected in BALB/c mouse systemic infection model assessed as reduction in liver bacterial load at 5 to 10 mg/kg, ip measured after 8 hrs; format: functional, organism-based; details: dose 5-10 mg/kg
[37] = system: Staphylococcus aureus; assay: Antibacterial activity against Staphylococcus aureus 794 infected in BALB/c mouse skin wound infection model assessed as reduction in TNFalpha level at 1 mg/ml, ip pre-infected with bacteria for 24 hrs followed by compound addition and measured after 13 days post infection; format: functional, organism-based; details: time 12.0 day
[38] = system: Staphylococcus aureus; assay: Antibacterial activity against Staphylococcus aureus 794 infected in BALB/c mouse skin wound infection model assessed as wound healing by measuring thickened scab at 1 mg/ml, ip pre-infected with bacteria for 24 hrs followed by compound addition and measured on day 9; format: functional, organism-based; details: time 9.0 day
[39] = Toxicity in BALB/c mouse infected with Staphylococcus aureus 794 assessed as increase in number of sweat glands at 1 mg/ml, ip pre-infected with bacteria for 24 hrs followed by compound addition and measured after 13 days by H and E staining based histopathological analysis; format: organism-based; details: in vivo, 312 h, time 13 day
[40] = system: Staphylococcus aureus; assay: Antibacterial activity against kanamycin resistant Staphylococcus aureus assessed as fractional inhibitory concentration index incubated for 18 hrs in presence of kanamycin by checkerboard assay; format: functional
[41] = system: Staphylococcus aureus; assay: Antibacterial activity against methicillin resistant Staphylococcus aureus 113 incubated for 18 hrs by broth microdilution method; format: functional
[42] = system: Staphylococcus aureus; assay: Antibacterial activity against Staphylococcus aureus S794 incubated for 18 hrs by broth microdilution method; format: functional
[43] = system: Staphylococcus aureus; assay: Antibacterial activity against Staphylococcus aureus S125 incubated for 18 hrs by broth microdilution method; format: functional
[44] = system: Staphylococcus aureus; assay: Antibacterial activity against methicillin resistant Staphylococcus aureus 75 incubated for 18 hrs by broth microdilution method; format: functional

NCCCC[C@@H](NC(=O)[C@H](N)Cc1c[nH]c2ccccc12)C(=O)N[C@H](Cc1c[nH]c2ccccc12)C(=O)N[C@H](CCCCN)C(=O)N[C@H](Cc1c[nH]c2ccccc12)C(=O)N[C@@H](CC(N)=O)C(=O)NCC(=O)N[C@H](Cc1c[nH]c2ccccc12)C(=O)N[C@H](CCCCN)C(=O)N[C@H](Cc1c[nH]c2ccccc12)C(=O)N[C@H](CCCCN)C(=O)N[C@H](Cc1c[nH]c2ccccc12)C(N)=O
MIC [1]: 2 µM (≈ 3.64 µg/mL) | MIC [2]: 8 µM (≈ 14.5 µg/mL) | MIC [3]: 8 µM (≈ 14.5 µg/mL) | MBC [4]: 8 µM (≈ 14.5 µg/mL) | MBC [5]: 8 µM (≈ 14.5 µg/mL) | MBC [6]: 32 µM (≈ 58.2 µg/mL) | Activity [7]: Active | Activity [8]: Active | Activity [9]: Active | Activity [10]: inactive | Activity [11]: inactive | Activity [12]: Active | Activity [13]: Dose-Dependent Effect | Activity [14]: 100% | fractional inhibitory concentration index (FICI) [15]: 0.563 | fractional inhibitory concentration index (FICI) [16]: 1.063 | fractional inhibitory concentration index (FICI) [17]: 1 | fractional inhibitory concentration index (FICI) [18]: 0.563 | fractional inhibitory concentration index (FICI) [19]: 0.313 | fractional inhibitory concentration index (FICI) [20]: 0.375 | fractional inhibitory concentration index (FICI) [21]: 0.563 | fractional inhibitory concentration index (FICI) [22]: 0.5 | fractional inhibitory concentration index (FICI) [23]: 0.5 | fractional inhibitory concentration index (FICI) [24]: 0.563 | fractional inhibitory concentration index (FICI) [25]: 0.5 | fractional inhibitory concentration index (FICI) [26]: 0.188 | fractional inhibitory concentration index (FICI) [27]: 0.75 | fractional inhibitory concentration index (FICI) [28]: 0.625 | fractional inhibitory concentration index (FICI) [29]: 0.563 | fractional inhibitory concentration index (FICI) [30]: 0.188 | fractional inhibitory concentration index (FICI) [31]: 0.563 | mortality [32]: 100% | Activity [33]: Toxic | Activity [34]: Toxic | Activity [35]: Active | Activity [36]: Active | Activity [37]: Active | Activity [38]: Active | Activity [39]: Toxic | fractional inhibitory concentration index (FICI) [40]: 0.563 | MIC [41]: 8 µM (≈ 14.5 µg/mL) | MIC [42]: 8 µM (≈ 14.5 µg/mL) | MIC [43]: 8 µM (≈ 14.5 µg/mL) | MIC [44]: 8 µM (≈ 14.5 µg/mL)

From ChEMBL document CHEMBL5543109, “Novel β-Hairpin Antimicrobial Peptide Containing the β-Turn Sequence of -NG- and the Tryptophan Zippers Facilitate Self-Assembly into Nanofibers, Exhibiting Excellent Antimicrobial Performance” (J Med Chem, 2024)
